≈ marks a conversion by molar mass, not a printed value.
Experiments:
IL-17A expression = test: IL-17A inhibition assay in IL-17 luciferase-(LUCPorter) stable reporter cell line; conditions: for Inhibition of IL-17A expression (%) Experiment-1 / Inhibition of IL-17A expression (%) Experiment-2 / Inhibition of IL-17A expression (%) Experiment-3: 6 hours; for expression of IL-17A (luciferase units): control group 2,582 units; for suppression of the expression of IL-17A (in words): 10, 100, or 1,000 μg/ml; for inhibition at 10 µg/mL / inhibition at 100 µg/mL / inhibition at 1000 µg/mL / IC50: Homo sapiens; for inhibition at 10 µg/mL / inhibition at 100 µg/mL / inhibition at 1000 µg/mL: read-out: Average Inhibition (%); for IC50: read-out: IC50 to inhibit the IL-17A expression by 50%
[1] = test system: psoriasis induced mice (imiquimod); test: Skin wrinkle reduction effect in the psoriasis induced mice; type: in vivo, Balb/c mouse; conditions: for number of mice showing skin wrinkles: IMQ applied, 8 mice/group
Protocol: (§1) To investigate the delayed effect of cedrol, cedryl acetate, and alpha-cedrene on the development of psoriasis, total 5 groups of mice were prepared (8 mice/group). First, the hair of the entire back of the 8-week-old male Balb/c mouse whose immune system was weakened was removed by using a hair clipper (Kimlaube Hair pen 325,327, Rikei, Korea). In the middle of the shaved back of the mouse, 2 mg of imiquimod (3M Health Care Limited, England) was applied in the area of 2 cm×1.5 cm and also 1,125 mg of imiquimod was applied on the right ear of the mouse every day once a day to induce psoriasis.
(§2) The mice prepared above were divided into the distilled water treated group (IMQ), the cedrol treated group (C), the cedryl acetate treated group (CA), and the alpha-cedrene treated group (CE). At this time, the mice were orally treated with distilled water at the concentration of 200 μl/mouse and cedrol or its derivatives at the concentration of 200 μl/mouse (100 mg/kg). The day when distilled water or the compound administration started was recorded as day 0 and the administration was performed once a day for a week, during which photo-recording was performed every day (FIGS. 2A˜2D). In the meantime, instead of applying imiquimod, 40 mg of vaseline was applied on the back of the control group (CONT) and 22.5 mg of vaseline was applied on the right ear of the control group. And the control group was orally administered with distilled water (200 μl/mouse).
The psoriasis induced mice orally administered with cedrol, cedryl acetate, and alpha-cedrene of Example <2-1> were observed by the naked eye, and the number of mice showing skin wrinkles was counted. Skin wrinkle is a symptom of psoriasis, and when IMQ is applied, skin keratinization increases and accordingly skin wrinkles are formed as time goes by.

[2] = test system: psoriasis induced mice (imiquimod); test: Ear thickness reduction effect in the psoriasis induced mice (PASI); type: in vivo, Balb/c mouse; conditions: for mean ear thickness point (PASI): day 7, 100 mg/kg oral once a day, IMQ applied, IMQ alone 3.5
Protocol: as §1, §2
Then, the psoriasis area severity index (PASI) was calculated with the range of 1˜4 to confirm the reduction effect of the compounds on the ear thickness.

[3] = test system: psoriasis induced mice (imiquimod); test: Accelerating effect on hair regrowth of the psoriasis induced mice; type: in vivo, Balb/c mouse; conditions: for number of mice showing hair regrowth: 8 mice/group
Protocol: (§3) Imiquimod was applied to the psoriasis induced mice which had developed psoriasis for a week in Example <2-1>. The application was stopped 8 days after the application began. The groups CON and IMQ were treated with distilled water, the group C was treated with cedrol, the group CA was treated with cedryl acetate, the group CE was treated with alpha-cedrene alone at the concentration of 100 mg/kg in 200 μl, every day via oral-administration. Day 8 was the day the imiquimod application was stopped, since then the compounds were administered for 1 week once a day, during which photo-recording was performed (FIGS. 13A˜13D).
The psoriasis induced mice orally administered with cedrol, cedryl acetate, and alpha-cedrene of Example <3-1> were observed by the naked eye, and the number of mice showing hair regrowth was counted.

[4] = test system: psoriasis induced mice (imiquimod); test: Recovery effect on keratosis of the psoriasis induced mice after termination of imiquimod (PASI); type: in vivo, Balb/c mouse
Protocol: as §3
Then, the psoriasis area severity index (Psoriasis Area Severity Index, PASI) was calculated, based on which the recovery effect on keratosis was evaluated.

[5] = test system: psoriasis induced mice (imiquimod); test: Keratosis reduction effect in the psoriasis induced mice (PASI); type: in vivo, Balb/c mouse; conditions: for keratosis mean point (PASI): day 7, 100 mg/kg oral once a day, IMQ applied, IMQ alone 3.8
Protocol: as §1, §2
Then, the psoriasis area severity index (PASI) was calculated to confirm the reduction effect of the compounds on keratosis. Keratosis is a symptom of psoriasis. The application of IMQ can induce keratosis.

[6] = test system: psoriasis induced mice (imiquimod); test: Recovery effect on skin wrinkles of the psoriasis induced mice; type: in vivo, Balb/c mouse
Protocol: as §3
The psoriasis induced mice orally administered with cedrol, cedryl acetate, and alpha-cedrene of Example <3-1> were observed by the naked eye, and the number of mice showing the recovery of skin wrinkles was counted.

[7] = test system: IL-17A expression in the spleen; test: Inhibition of IL-17A expression in the spleen of the psoriasis induced mice (real-time PCR); type: in vivo, Balb/c mouse; conditions: 100 mg/kg oral, IMQ applied; for IL-17A expression value in the spleen (non-treated control group regarded as value 1): real-time PCR, IMQ alone 54.9±5.5
Protocol: as §1, §2
The inhibition of IL-17A expression in the spleen of the psoriasis Induced mice according to the oral administration of cedrol, cedryl acetate, and alpha-cedrene was investigated by real-time PCR (polymerase chain reaction).
Particularly, the spleen was extracted from the psoriasis Induced mice orally administered with cedrol, cedryl acetate, and alpha-cedrene of Example <2-1>. Total RNA was extracted from the spleen by the conventional method. To synthesize cDNA, 2 μg of RNA was loaded in 9 μl of DEPC (RNase free water), indicating the dilution of the concentration. 1 μl of oligo dT was added thereto, followed by reaction at 70° C. for 10 minutes. The sample was treated on ice for 5 minutes, to which 2 μl of 10× reaction buffer, 2 μl of dNTP (10 mM each), 1 μl of M-MLV reverse transcriptase, and 5 μl of DNase free water were added to make the total volume of the reaction mixture 20 μl. The mixture was reacted at 42° C. for 1 hour to synthesize cDNA. The reaction mixture was heated at 72° C. for 10 minutes to remove the reverse transcriptase activity. Then, the reaction mixture was stored at −20° C. Real-time PCR was performed by using AMPIGENE qPCR 1-Step Green Kit (Enzo Life Sciences Inc, USA). […]

[8] = day 7, 100 mg/kg oral, IMQ alone 3
[9] = day 13, 100 mg/kg oral after termination of imiquimod
[10] = day 16, 100 mg/kg oral after termination of imiquimod, distilled water 5
[11] = day 8 (imiquimod application stopped), 100 mg/kg oral
[12] = day 8, 100 mg/kg oral, 8 mice/group
[13] = day 16, 100 mg/kg oral after termination of imiquimod
[14] = 100 mg/kg oral after termination of imiquimod

SMILES	expression of IL-17A, % by the control (IL-17A expression; 10 μg/ml)	Inhibition of IL-17A expression (%) Experiment-2 (IL-17A expression; 10 μg/ml)	Inhibition of IL-17A expression (%) Experiment-3 (IL-17A expression; 10 μg/ml)	expression of IL-17A (luciferase units) (IL-17A expression; 10 μg/ml)	expression of IL-17A, % by the control (IL-17A expression; 100 μg/ml)	Inhibition of IL-17A expression (%) Experiment-2 (IL-17A expression; 100 μg/ml)	Inhibition of IL-17A expression (%) Experiment-3 (IL-17A expression; 100 μg/ml)	expression of IL-17A (luciferase units) (IL-17A expression; 100 μg/ml)	expression of IL-17A, % by the control (IL-17A expression; 1,000 μg/ml)	Inhibition of IL-17A expression (%) Experiment-2 (IL-17A expression; 1000 μg/ml)	Inhibition of IL-17A expression (%) Experiment-3 (IL-17A expression; 1000 μg/ml)	expression of IL-17A (luciferase units) (IL-17A expression; 1,000 μg/ml)	suppression of the expression of IL-17A (in words) (IL-17A expression)	inhibition at 10 µg/mL (IL-17A expression)	inhibition at 100 µg/mL (IL-17A expression)	inhibition at 1000 µg/mL (IL-17A expression)	IC50 (IL-17A expression)	number of mice showing skin wrinkles [1, 8]	mean ear thickness point (PASI) [2]	number of mice showing hair regrowth [3, 10]	further results
CC1=CC[C@@]23C[C@@H]1C(C)(C)[C@@H]2CC[C@H]3C [alpha-cedrene, Alpha-cedrene]	79 % by the control	3%	21%	2,042±114 units	68 % by the control	11%	32%	1,757±310 units	65 % by the control	23%	35%	1,688±64 units	dose-dependently	10%	21.3%	31.3%	1510 µg/mL (≈ 7.37 mM)	one	2.6 point	all the mice	Inhibition of IL-17A expression (%) Experiment-1 (IL-17A expression; 10 μg/ml): 6%; Inhibition of IL-17A expression (%) Experiment-1 (IL-17A expression; 100 μg/ml): 21%; Inhibition of IL-17A expression (%) Experiment-1 (IL-17A expression; 1000 μg/ml): 36%; skin wrinkle reduction effect, comparison in words ([1]; 100 mg/kg oral, 7 days): strongest reduction effect; number of mice showing skin wrinkles ([1]; day 6, 100 mg/kg oral): one; number of mice showing hair regrowth [3, 9]: one; PASI reflecting keratosis [4, 11]: 4.0±0.6 point; PASI reflecting keratosis ([4]; day 15, 100 mg/kg oral once a day after termination of imiquimod): 0.3±0.6 point; keratosis reduction effect, comparison in words ([5]; 100 mg/kg oral, 7 days): strongest reduction effect; keratosis mean point (PASI) [5]: 2.66 point; number of mice showing skin wrinkles [6, 12]: 3 mice; number of mice showing skin wrinkles [6, 13]: no mouse; IL-17A expression inhibition effect in the spleen, comparison in words [7]: strongest inhibition effect; IL-17A expression value in the spleen (non-treated control group regarded as value 1) [7]: 31.0±3.1
C[C@@H]1CC[C@H]2C(C)(C)[C@H]3C[C@@]12CC[C@@]3(C)O [cedrol, Cedrol]	67 % by the control	0%	33%	1,718±174 units	57 % by the control	14%	43%	1,460±124 units	28 % by the control	59%	72%	715±45 units	dose-dependently	19%	26%	69%	726 µg/mL (≈ 3.26 mM)	2 mice	2.6 point	all the mice	Inhibition of IL-17A expression (%) Experiment-1 (IL-17A expression; 10 μg/ml): 24%; Inhibition of IL-17A expression (%) Experiment-1 (IL-17A expression; 100 μg/ml): 21%; Inhibition of IL-17A expression (%) Experiment-1 (IL-17A expression; 1000 μg/ml): 76%; number of mice showing skin wrinkles ([1]; day 5, 100 mg/kg oral): one; accelerating effect on hair regrowth, comparison in words [3, 14]: strongest accelerating effect; number of mice showing hair regrowth [3, 9]: 2 mice; keratosis recovery effect, comparison in words [4, 14]: strongest recovery effect; PASI reflecting keratosis [4, 11]: 3.0±0.6 point; keratosis recovered to normal (in words) ([4]; on day 15, 100 mg/kg oral after termination of imiquimod): all 8 mice were recovered to normal; keratosis mean point (PASI) [5]: 3.00 point; skin wrinkle recovery effect, comparison in words [6, 14]: strongest recovery effect; number of mice showing skin wrinkles ([6]; after day 15, 100 mg/kg oral after termination of imiquimod): no mouse; number of mice showing skin wrinkles [6, 12]: 5 mice; IL-17A expression value in the spleen (non-treated control group regarded as value 1) [7]: 1.1±0.1
CC(=O)O[C@]1(C)CC[C@@]23C[C@@H]1C(C)(C)[C@@H]2CC[C@H]3C [cedryl acetate, Cedryl acetate]	77 % by the control	15%	23%	1,994±304 units	64 % by the control	27%	36%	1,648±138 units	10 % by the control	74%	90%	257±6 units	dose-dependently	19%	31.5%	82%	608 µg/mL	one	2.3 point	7 mice	IL-17A expression inhibition activity, comparison in words (IL-17A expression; order by IC50 of Table 3): strongest IL-17A expression inhibition activity; number of mice showing skin wrinkles ([1]; day 5, 100 mg/kg oral): one; ear thickness reduction effect, comparison in words ([2]; 100 mg/kg oral, 7 days): strongest reduction effect; number of mice showing hair regrowth ([3]; day 14, 100 mg/kg oral after termination of imiquimod): one; PASI reflecting keratosis [4, 11]: 4.0±0.6 point; PASI reflecting keratosis ([4]; day 14, 100 mg/kg oral once a day after termination of imiquimod): 1.0±0.0 point; keratosis mean point (PASI) [5]: 3.08 point; number of mice showing skin wrinkles [6, 12]: 3 mice; number of mice showing skin wrinkles [6, 13]: no mouse; IL-17A expression value in the spleen (non-treated control group regarded as value 1) [7]: 7.4±0.7

Reference: patent US10307383B2, “Cosmetic composition for preventing or ameliorating hypersensitive skin comprising cedrol or derivatives thereof, or pharmaceutically acceptable salts thereof” (University of Seoul Industry Cooperation Foundation, priority 2017, dated 2019)
